Where “and” joins values, the source holds several entries; their conditions need not be identical. Identical values can stand only once. Entries after “also recorded” stand apart in the source; their conditions may differ. Like-named read-outs stand apart in the source and are kept apart here.

The target of data set [1] is T1, hPPARß/δ LBD (Homo sapiens, UniProt Q03181).
T1 construct: cDNA (amino acids 171–441) inserted into pET28a vector; His-tag; made in house; host or cells: Escherichia coli BL21(DE3)
T1 sequence (Q03181 171-441): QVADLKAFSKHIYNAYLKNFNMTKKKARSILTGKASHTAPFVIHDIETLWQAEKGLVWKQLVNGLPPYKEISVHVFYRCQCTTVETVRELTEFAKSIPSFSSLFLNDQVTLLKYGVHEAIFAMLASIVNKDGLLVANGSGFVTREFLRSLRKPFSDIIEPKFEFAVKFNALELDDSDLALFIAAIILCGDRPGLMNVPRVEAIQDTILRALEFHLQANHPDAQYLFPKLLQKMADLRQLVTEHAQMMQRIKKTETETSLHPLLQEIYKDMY
In words: ANS fluorescence quenching. It is filed as binding. To be noted: 2 μM hPPARß/δ LBD, 20 μM ANS; for ANS fluorescence quenching / ANS probe displacement (qualitative): compounds 0.3–50 μM, extracts 0.005–1 mg/mL.

The target in data set [2] is T1, hPPARß/δ LBD. In words: Qualitative thermal shift assay (TSA). It is filed as binding. The note with it: commercial agonists at 30 μM, 10 μM PPARß/δ, vs apo-PPARß/δ.
The test system of data set [3] is 293T cells. Description: Cytotoxicity: MTT assay and Renilla reporter expression. It is filed as cell-based. To be noted: 1 μM, 1% DMSO as vehicle, compared with 0.1% or 1% DMSO. The method, then:
We performed vector normalization with the raw luminescence data to control for differences in transfection efficiency between samples. For vector normalization we calculate luciferase signal/Renilla signal. The assay performance was assessed by plate statistics (signal-to-background ratio, Z′-factor, coefficient of variation) and apparent cytotoxicity was a measure of Renilla luciferase parameters. For Z′-factor calculation, we consider, after vector normalization, the positive controls (GW0742) as signal, and negative controls (DMSO) as background. For cytotoxicity, wells with expression of Renilla reporter five standard deviations (5 × SD) below the mean value of the controls treatment were considered cytotoxic and consequently were disregarded. We considered as hit candidates compounds/extracts with luminescence firefly/Renilla ratio 7 times above the standard deviation of negative controls (DMSO) from the same plate. […]
Additionally, we related the 3-(4,5-dimethyl-2-thia-zoyl)-2,5-diphenyl-2H-tetrazolium bromide (MTT) results with Renilla reporter expression to assess when a test compound/extract might be toxic to the cells, only based on Renilla reporter expression. […] The absorbance was measured at 562 nm using an EnSpire® Multimode Plate Reader (Perkin Elmer). […] Data were analyzed by 2-way ANOVA followed by Sidak's multiple comparison test in GraphPad Prism software. […]

In data set [4] the test system is PPARß/δ. The note with it: read-out: EC50 found in the literature, cited from earlier work.
Data set [5] addresses T2, PPARß/δ (Homo sapiens, UniProt Q03181).
T2 construct: expressed in transfected cells; host or cells: 293T cells (ATCC CRL-3216), transient transfection
T2 sequence (Q03181 211-439 limits assumed): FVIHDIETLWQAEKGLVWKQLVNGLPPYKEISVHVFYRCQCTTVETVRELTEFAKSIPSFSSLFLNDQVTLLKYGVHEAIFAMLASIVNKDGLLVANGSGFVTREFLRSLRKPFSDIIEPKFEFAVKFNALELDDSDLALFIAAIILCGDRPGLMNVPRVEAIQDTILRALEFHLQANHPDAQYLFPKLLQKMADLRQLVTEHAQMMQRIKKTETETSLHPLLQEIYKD
In words: PPARß/δ transactivation assay (Gal4-DBD/PPARß/δ-LBD dual luciferase reporter-gene assay in 293T cells). It counts as cell-based. The note with it: dose-response curves 10^−11–10^−6 M.

Consider `CC(C)(Oc1ccc(CCNC(=O)c2ccc(Cl)cc2)cc1)C(=O)O` [Bezafibrate], for which the “ANS fluorescence quenching / ANS probe displacement (qualitative)” value in data set [1] is “did not dislocate the ANS probe; also recorded: did not show a fluorescence quenching”. In data set [2], the Tm variation was 2.9 ± 0.1 °C and 2.9 °C.
On to `Cc1cc(SCc2sc(-c3ccc(C(F)(F)F)c(F)c3)nc2C)ccc1OCC(=O)O` [GW0742], for which the “cytotoxicity (MTT / Renilla reporter expression)” value in data set [3] is on record as “no cytotoxicity”.
Consider `CCCc1c(OCCCOc2ccc(OCC(=O)O)cc2)ccc(C(C)=O)c1O` [L-165,041], for which, in data set [1], the “ANS fluorescence quenching / ANS probe displacement (qualitative)” value is listed as “showed quenching in the ANS fluorescence”. In data set [1] (read-out: apparent dissociation constant (Kdapp)), the Kd came to 1090 ± 80 nM. In addition, the values for the EC50 in data set [4] (ref [25]) and in data set [5] were 125 nM and 26.4 nM, respectively. Besides, in data set [2], the Tm variation was 7.3 ± 0.7 °C and 7.3 °C.
Turning to `Cc1cc(SCc2sc(-c3ccc(C(F)(F)F)cc3)nc2C)ccc1OCC(=O)O` [GW501516], the EC50 (as a rule, the concentration at which the effect is half-maximal) in data set [4] (ref [7]) is 1.8 nM.

The values above are taken from PMC5924986, “Cellular and Biophysical Pipeline for the Screening of Peroxisome Proliferator-Activated Receptor Beta/Delta Agonists: Avoiding False Positives” (PPAR Research, 2018).
